Patent publication US20040162247A1, “Therapeutic agent or osteoporosis comprising an active ingredient of quercetin derivatives” (priority 2000, published 2004)
Values joined by “and” are separate entries in the source; they are usually repeats but may differ in a detail not shown here. Equal values may be shown once. Read-outs that look alike come from different tables or passages of the source. Values belong to the compound of their own block, whether it stands above or below them.

What was measured:
ovariectomized rats = experiment: Wet weight of internal organs of ovariectomized rats after drug administration; conditions: OVX rats
Description: To find out quercetin effect on internal organ of test animal, liver, kidney, brain, uterus, skin, and tibia were removed from the test animals administered with test agents for 9 weeks after operation and wet weight of each organ was measured (see: Table 4).

[1] = Body weight of ovariectomized rats during drug administration
Description: (§1) Female SD (Sprague-Dawley) rats, a model animal for type I osteoporosis occurring after menopause were employed for evaluating pharmacological effectiveness of quercetin. Female rats (10 weeks old) weighing 200 to 300 g, obtained from the Korea Research Institute of Chemical Technology were employed as experimental animals. Experiment was carried out by the procedure which comprises removing ovary, administration of agents to the each group of rats, and at certain days after ovariectomy, the rats were sacrificed and subjected to analyses including measurement of body weight, examination of internal organs, measurement of trabecular bone area, complete blood count, and biochemical analyses of plasma.
(§2) The Sham group, animals operated upon for the surgery as in the ovariectomized rats except for removing ovary, were employed to compare the changes caused solely by ovariectomy in control group which were ovariectomized but no agent was administered. Control group was employed to compare the changes caused by administration of agents in test group which were ovariectomized and administered with testing agents.
(§3) During the period of administration, blood was sampled once a week. After 9-week administration, entire blood was withdrawn with heparin treatment. Following complete blood count (CBC), the blood was centrifuged at 3,000 rpm for 20 minutes to obtain plasma which was stored at −70° C. until use. For measurement of bone mineral density, the lumbar spine L5 and L6, and right tibia were removed and stored separately in 4% (v/v) formalin solution.

osteoclasts = experiment: Osteoclast proliferation, count of TRAP-positive multinucleated cells; format: cell-based, ICR mice; conditions: for Number of osteoclast (% of control group): day 2, TRAP staining
Description: ICR mice (Korea Research Institute of Chemical Technology, Taejon, Korea) were fed with calcium deficient diet (ICN Biomedicals, Inc., Ohio, U.S.A.) for 4 weeks to activate osteoclasts. The right and left tibiae and femurs of the calcium […] were removed avoiding contamination of surrounding muscle tissues. Femurs and right and left tibiae, classified on the clean bench and kept on ice separately, were added into the α-MEM containing 100 μg/ml streptomycin and then vigorously shaken respectively to extract osteoclasts into the medium. After kept on ice for 5 minutes, the cell suspension was centrifuged at 800×g for 3 minutes and the cell pellet was resuspended in a α-MEM nutrient medium supplemented with 10% FBS, 100 μg/ml streptomycin and 100 unit/ml penicillin. The cell suspension was distributed into wells of a 24-well plate at a cell number of 3.5×10^6/well. To the osteoclasts obtained in Example 2-1 above, quercetin was added to yield concentrations of 1×10^−8 to 1×10^−2 mg/ml. On day 2, the cells were subjected to tartrate-resistant acid phosphatase (TRAP) staining using a commercially available kit (Sigma Chemical Co., U.S.A.), followed by counting of osteoclasts which are TRAP-positive multinucleated cells (MNC), judged by more than three nuclei in a cell stained red (see: Table 2).

[2] = rat, in vivo
Description: as §1, §2, §3

mice = conditions: orally administered, M. Sullivan et al. 1951; cited from earlier work
[3] = 9 weeks i.p. (E2 1 μg/kg/day; quercetin, genistein 10 mg/kg/day)

- Brain wet weight (ovariectomized rats; [3]): 1.98 ± 0.03 g
- Kidney wet weight (ovariectomized rats; [3]): 1.83 ± 0.03 g
- Liver wet weight (ovariectomized rats; [3]): 10.03 ± 0.36 g
- Skin wet weight (ovariectomized rats; [3]): 188 ± 9 mg
- Tibia wet weight (ovariectomized rats; [3]): 0.537 ± 0.008 g
- Uterus wet weight (ovariectomized rats; [3]): 106 ± 3 mg
SMILES: O=c1c(-c2ccc(O)cc2)coc2cc(O)cc(O)c12 [Genistein, genistein]
- Effect on weight of uterus / uterine hypertrophy (in words) (ovariectomized rats; 9 weeks i.p., compared with control group): did not give rise to change in weight of uterus
- Weight ([1]; OVX rats, 1 week after operation (start of administration)): 242.12 ± 5.96 g
- Body weight increase after ovariectomy (in words) ([1]; OVX rats, compared with control group, E2 1 μg/kg/day, quercetin or genistein 10 mg/kg/day): rapid increase of body weight
- Weight ([1]; OVX rats, i.p. from 1 week after operation (E2 1 μg/kg/day; quercetin, genistein 10 mg/kg/day), 2 weeks after operation): 270.00 ± 8.05 g
- Weight ([1]; OVX rats, i.p. from 1 week after operation (E2 1 μg/kg/day; quercetin, genistein 10 mg/kg/day), 3 weeks after operation): 296.20 ± 7.68 g
- Weight ([1]; OVX rats, i.p. from 1 week after operation (E2 1 μg/kg/day; quercetin, genistein 10 mg/kg/day), 4 weeks after operation): 310.80 ± 7.80 g
- Weight ([1]; OVX rats, i.p. from 1 week after operation (E2 1 μg/kg/day; quercetin, genistein 10 mg/kg/day), 5 weeks after operation): 317.29 ± 7.93 g
- Weight ([1]; OVX rats, i.p. from 1 week after operation (E2 1 μg/kg/day; quercetin, genistein 10 mg/kg/day), 6 weeks after operation): 327.19 ± 8.31 g
- Weight ([1]; OVX rats, i.p. from 1 week after operation (E2 1 μg/kg/day; quercetin, genistein 10 mg/kg/day), 7 weeks after operation): 332.80 ± 9.23 g
- Weight ([1]; OVX rats, i.p. from 1 week after operation (E2 1 μg/kg/day; quercetin, genistein 10 mg/kg/day), 8 weeks after operation): 336.38 ± 9.01 g
- Weight ([1]; OVX rats, i.p. from 1 week after operation (E2 1 μg/kg/day; quercetin, genistein 10 mg/kg/day), 9 weeks after operation): 342.71 ± 8.26 g
- Weight ([1]; OVX rats, i.p. from 1 week after operation (E2 1 μg/kg/day; quercetin, genistein 10 mg/kg/day), 10 weeks after operation): 347.23 ± 7.57 g
- Weight ([1]; before operation (baseline, before administration)): 217.55 ± 7.24 g

SMILES: O=c1c(O)c(-c2ccc(O)c(O)c2)oc2cc(O)cc(O)c12 [Quercetin, quercetin]
- Inhibitory effect on the osteoclast proliferation (in words) (osteoclasts; 1×10^−8 to 1×10^−4 mg/ml): little inhibitory effect
- Number of osteoclast (% of control group) (osteoclasts; 1 × 10^−2 mg/ml): 25 % of control group and 24.7 ± 5.7 % of control group
- Number of osteoclast (% of control group) (osteoclasts; 1 × 10^−3 mg/ml): 61 % of control group and 61.1 ± 4.1 % of control group
- Number of osteoclast (% of control group) (osteoclasts; 1 × 10^−4 mg/ml): 89.6 ± 3.2 % of control group
- Number of osteoclast (% of control group) (osteoclasts; 1 × 10^−6 mg/ml): 96.8 ± 2.7 % of control group
- Number of osteoclast (% of control group) (osteoclasts; 1 × 10^−8 mg/ml): 100.9 ± 1.8 % of control group
- Weight [2]: 221.87 ± 7.57 g
- LD50 (mice): not less than 160 mg/kg
